Results taken from PubChem BioAssay AID2060340 (Molecular Pharmacology Branch, DTP, NCI, 2025).
“And” between values parts separate entries of the source, which are not always exact repeats. Equal values may be shown once. Blank lines part the entries; values can stand above or below the compound they belong to.

System: 349418-098-R-PDC spheroids, viability, % test/control
Assay: Anticancer human tumor 349418-098-R-PDC patient-derived lung adenocarcinoma cell line growth inhibition [IpAb]
Conditions: spheroids with HUVEC and MSC; for viability, T/C: stronger effect = lower value
Outline: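 Spheroids of 60% malignant cells, 25% HUVEC and 15% MSC were exposed to targeted agents combined with ipatasertib or abemaciclib. Doses started at or near clinical Cmax (10 microM when unknown) and fell in half-log steps.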
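Also: spheroids exposed to compounds for 7 days.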

SMILES: Cn1cnc2c(F)c(Nc3ccc(Br)cc3Cl)c(C(=O)NOCCO)cc21 + CC(C)NCC(C(=O)N1CCN(c2ncnc3c2C(C)CC3O)CC1)c1ccc(Cl)cc1
IC50 (curve of first compound, second compound 0.1 µM): < 9.49 nM | IC50 (curve of first compound, second compound 0.316 µM): < 9.49 nM | IC50 (curve of first compound, second compound 1 µM): < 9.49 nM | IC50 (curve of first compound, second compound 3.16 µM): < 9.49 nM | IC50 (curve of first compound, second compound 10 µM): < 9.49 nM | viability, T/C (second compound 0.1 µM, first compound 0.00949 µM): 46.7% | viability, T/C (second compound 0.1 µM, first compound 0.03 µM): 38.4% | viability, T/C (second compound 0.1 µM, first compound 0.0949 µM): 41.8% | viability, T/C (second compound 0.1 µM, first compound 0.3 µM): 33.6% | viability, T/C (second compound 0.1 µM, first compound 0.949 µM): 18.8% | viability, T/C (second compound 0.1 µM, first compound 3 µM): 8.1% | viability, T/C (second compound 0.316 µM, first compound 0.00949 µM): 25.7% | viability, T/C (second compound 0.316 µM, first compound 0.03 µM): 24.6% | viability, T/C (second compound 0.316 µM, first compound 0.0949 µM): 21.4% | viability, T/C (second compound 0.316 µM, first compound 0.3 µM): 18.8% | viability, T/C (second compound 0.316 µM, first compound 0.949 µM): 10.2% | viability, T/C (second compound 0.316 µM, first compound 3 µM): 7.06% | viability, T/C (second compound 1 µM, first compound 0.00949 µM): 12.5% | viability, T/C (second compound 1 µM, first compound 0.03 µM): 10.5% | viability, T/C (second compound 1 µM, first compound 0.0949 µM): 10.3% | viability, T/C (second compound 1 µM, first compound 0.3 µM): 7.91% | viability, T/C (second compound 1 µM, first compound 0.949 µM): 6.83% | viability, T/C (second compound 1 µM, first compound 3 µM): 5.21% | viability, T/C (second compound 3.16 µM, first compound 0.00949 µM): 7.25% | viability, T/C (second compound 3.16 µM, first compound 0.03 µM): 6.51% | viability, T/C (second compound 3.16 µM, first compound 0.0949 µM): 5.52% | viability, T/C (second compound 3.16 µM, first compound 0.3 µM): 5.93% | viability, T/C (second compound 3.16 µM, first compound 0.949 µM): 4.94% | viability, T/C (second compound 3.16 µM, first compound 3 µM): 3.63% | viability, T/C (second compound 10 µM, first compound 0.00949 µM): 5.59% | viability, T/C (second compound 10 µM, first compound 0.03 µM): 5.09% | viability, T/C (second compound 10 µM, first compound 0.0949 µM): 4.7% | viability, T/C (second compound 10 µM, first compound 0.3 µM): 3.85% | viability, T/C (second compound 10 µM, first compound 0.949 µM): 3.8% | viability, T/C (second compound 10 µM, first compound 3 µM): 3.14%

IC50 (curve of compound): 5170 nM and 5470 nM
SMILES: CC1(C)CCC(CN2CCN(c3ccc(C(=O)NS(=O)(=O)c4ccc(NCC5CCOCC5)c([N+](=O)[O-])c4)c(Oc4cnc5[nH]ccc5c4)c3)CC2)=C(c2ccc(Cl)cc2)C1
viability, T/C (compound 0.0316 µM): 110% and 115% | viability, T/C (compound 0.1 µM): 109% and 94.8% | viability, T/C (compound 0.316 µM): 107% and 101% | viability, T/C (compound 1 µM): 103% and 106% | viability, T/C (compound 3.16 µM): 82.2% and 92.3% | viability, T/C (compound 10 µM): 6.95% and 3.46%
